In patent US6121296A, “Transition-state inhibitors for nucleoside hydrolase and transferase reactions” (Albert Einstein College of Medicine of Yeshiva University, priority 1998, dated 2000):
Entries after “also recorded” stand apart in the source; their conditions may differ. Where two headings read alike, the source gives them in different places.

Assays:
nucleoside hydrolase = target: T1, nucleoside hydrolase (Crithidia fasciculata, UniProt Q27546); test: Nucleoside hydrolase purified from C. fasciculata: substrate kinetics and inhibition (Table III); type: biochemical; details: for Substrate or inhibitor concentration (substrate activity limit; nucleoside concentration in parentheses): Table III lower part; for Km / Vmax: Table III; for Km / Vmax / Vmax /Km: compound as substrate; for inhibition pattern: vs inosine
T1 construct: nucleoside hydrolase was purified from C. fasciculata as described above; endogenous in cells; host or cells: Crithidia fasciculata cells grown in a 300-liter fermenter
T1 sequence (Q27546 1-315): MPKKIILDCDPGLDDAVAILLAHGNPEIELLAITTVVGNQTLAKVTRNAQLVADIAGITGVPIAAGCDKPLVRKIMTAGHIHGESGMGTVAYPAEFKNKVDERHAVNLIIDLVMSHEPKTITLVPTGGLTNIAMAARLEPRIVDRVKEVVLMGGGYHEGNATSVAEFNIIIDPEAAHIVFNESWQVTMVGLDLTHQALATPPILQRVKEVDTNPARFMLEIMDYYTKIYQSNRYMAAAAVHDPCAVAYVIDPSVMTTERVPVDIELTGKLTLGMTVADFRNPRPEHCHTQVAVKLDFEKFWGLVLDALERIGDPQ
Description: The assay volumes were […]. The reaction was terminated by the addition of […] of 1.0 M HCl. […] The color was developed at 95° C. for 8 minutes and the optical absorbance measured at 450 nm. Enzymatic activity was expressed as millimoles of reducing sugar formed per minute per milligram of protein. During the initial stages of purification a modified assay which removes excess protein was used. Protein solutions of 1-5 ml were added to 100 ml of the assay mixture and incubated for the desired time. The assay was terminated by the addition of […] of 0.1 M ZnSO4. Excess Zn^2+ was removed by the addition of […] of 0.1 M NaOH. After centrifugation, 250 ml of supernatant was removed and assayed for reducing sugar. […] Arsenate readily replaces phosphate in the reaction and the product ribose 1-arsenate rapidly hydrolazes to release ribose which is detected in the reducing sugar assay.
At other pH values, a mixed buffer system was used which contained 30 mM each of acetate. Mes, Pipes, Hepes, Bicine, and Ches were adjusted to the desired pH with HCl or NaOH. The reaction was initiated with a small volume of enzyme and the increase in absorbance recorded at 280 nm.
Assay mixtures of 19 ml contained the desired concentration of inosine and inhibitor(s) together with approximately 3×10^4 cpm of radioactive inosine in 50 mM Hepes or triethanolamine buffer, pH 7.3. […] Samples of […] were removed at the appropriate intervals and spotted on polyethyleneimine cellulose thin layer plates which had been previously spotted with 4 ml of a solution containing 2.2 mM each of inosine and hypoxanthine.
Reaction mixtures were incubated for 5-27 hours and samples analyzed on a 7.8 mm×30 cm C18 -HPLC column eluted with 5 or 10% methanol in H2 O, 4 ml/minute. Samples were detected by the absorbance at 257 nm. Substrate activity with deoxyinosine was also measured at 500 MHz by NMR. […] Proton NMR spectra were collected in sets of eight scans over 15 minutes at room temperature.
Apparent inhibition constants (Ki(app)) were determined from the relationship shown in the following equation:
Vo /Vi +(inosine±Km (1+I/Ki(app))/(inosine+Km)
where Vo and Vi are the initial reaction rates without and with inhibitor, respectively. Km is the Michaelis constant for inosine, I is inhibitor concentration and Ki(app) is the apparent dissociation constant for inhibitor. In cases where the inhibitor is competitive with respect to substrate, Ki(app) is the dissociation constant for the enzyme-inhibitor complex.

IU-nucleoside hydrolase = target: T2, IU-nucleoside hydrolase (Crithidia fasciculata, UniProt Q27546, P2A); test: biochemical; type: biochemical, C. fasciculata; details: for Ki: KI IU-nucleoside hydrolase, Table V; for inhibition pattern: minimum of four substrate and three inhibitor concentrations
T2 construct: contained the coding region for the enzyme; made in house; host or cells: E. coli BL21 (DE3)pLysS, pET3d plasmid
T2 sequence (Q27546 whole entry P2A): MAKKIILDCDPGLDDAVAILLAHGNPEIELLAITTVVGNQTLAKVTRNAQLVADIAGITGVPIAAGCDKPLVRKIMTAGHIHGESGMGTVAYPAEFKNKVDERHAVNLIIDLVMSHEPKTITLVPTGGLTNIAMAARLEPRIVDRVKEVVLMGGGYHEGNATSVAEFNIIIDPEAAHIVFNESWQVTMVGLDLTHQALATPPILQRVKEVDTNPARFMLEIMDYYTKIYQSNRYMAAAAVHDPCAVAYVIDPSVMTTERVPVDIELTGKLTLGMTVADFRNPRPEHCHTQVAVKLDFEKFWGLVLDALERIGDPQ
Description: Enzymes. Inosine-uridine nucleoside hydrolase (IU-nucleoside hydrolase) was purified from extracts of E. coli strain BL21 (DE3)pLysS which contained the coding region for the enzyme isolated from C. fasciculata in a pET3d expression plasmid. The DNA coding for the enzyme was placed in the NcoI-BamHI site. This construct gives a Pro2Ala substitution which has no significant effect on the kinetic properties of the purified enzyme. The overexpressed enzyme was purified to apparent homogeneity as previously described (Gopaul, et al. (1996) Biochemistry 35, 5963-5970).
(§1) Enzyme Assays. Initial rate measurements were accomplished at 30° C. in reaction mixtures containing 50 mM potassium phosphate, pH 7.5, or 50 mM Hepes, pH 8.0, and nitrophenylribose or inosine as substrates (Mazella, et al. (1996) J. Am. Chem. Soc. 118, 2111-2112). At pH 7.5 the product p-nitrophenylate anion is present at a concentration which gives a millimolar extinction coefficient of 9.3 cm^-1 at 400 nm. Reaction mixtures with nitrophenylribose as substrate were initiated by the addition of enzyme, and product formation was monitored by continuous recording at 400 nm. With inosine as substrate, the conversion to hypoxanthine was monitored continuously at 280 nm (Parkin, et al. (1991) J. Biol. Chem. 266, 20658-20665). […] The remainder of the inhibitors were analyzed at one fixed substrate concentration and variable inhibitor concentrations. Inhibition constants for IAG-nucleoside hydrolase were established from full kinetic analysis with V and X as inhibitors. […] The remainder of the inhibition constants were characterized by titration of assay mixtures containing a fixed concentration of substrate with variable inhibitor concentrations. […] For Ki determination at a fixed substrate concentration, this approach assumes that substrate and inhibitor compete for the catalytic site.
Inhibitors. Iminoribitol inhibitor were synthesized and purified according to the methods of Furneaux, et al. (Tetrahedron (1997) in press), characterized by NMR, dissolved in H2 O and stored at -20° C. The compounds are enzymatically and chemically stable in H2 O and under conditions of the assay. IU-Nucleoside hydrolase is susceptible to slow-onset tight-binding inhibition under certain conditions (Horenstein & Schramm, (1993b) Biochemistry 32, 9917-9925, Boutellier, et al. (1994) Biochemistry, 33, 3994-4000). However, in the initial reaction rate conditions described here, only the rapidly reversible competition between substrate and inhibitor is being observed. Thus, the reported kinetic constants are dissociation constants which exclude slow-onset binding.

IAG-nucleoside hydrolase = IAG-nucleoside hydrolase (Trypanosoma brucei, UniProt Q57ZL6); test: Inhibition of IAG-nucleoside hydrolase, initial rates; details: for inhibition at highest concentration tested: 80, 120, 120 and 160 μM II, III, IV and VI respectively, 75 μM inosine
IAG-nucleoside hydrolase, sequence (Q57ZL6 entry or part of it): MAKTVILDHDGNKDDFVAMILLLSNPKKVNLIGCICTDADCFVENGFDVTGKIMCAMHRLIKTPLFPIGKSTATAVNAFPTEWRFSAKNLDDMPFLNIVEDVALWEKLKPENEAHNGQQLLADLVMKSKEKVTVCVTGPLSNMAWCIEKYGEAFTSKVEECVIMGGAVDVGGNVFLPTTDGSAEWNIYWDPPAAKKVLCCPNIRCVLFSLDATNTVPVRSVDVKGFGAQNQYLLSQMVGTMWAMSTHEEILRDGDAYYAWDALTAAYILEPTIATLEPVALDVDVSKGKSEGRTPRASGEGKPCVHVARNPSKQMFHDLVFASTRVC
Description: The enzyme was purified to apparent homogeneity as determined by denaturing polyacrylamide gel electrophoresis (Parkin, (1996) J. Biol. Chem. 271, 21713-21719). Some of the studies used the T. brucei brucei enzyme which was overexpressed in E. coli.
as §1, with “concentrations.” for “concentrations. Inhibition constants for IAG-nucleoside hydrolase were established from full kinetic analysis with V and X as inhibitors.”
Inhibitors. Iminoribitol inhibitor were synthesized and purified according to the methods of Furneaux, et al. (Tetrahedron (1997) in press), characterized by NMR, dissolved in H2 O and stored at -20° C.

[1] = apparent constant, single inosine concentration near Km, three inhibitor concentrations, read-out: Ki(app)

Molecule	Substrate or inhibitor concentration (substrate activity limit; nucleoside concentration in parentheses) (nucleoside hydrolase)	Ki (nucleoside hydrolase) [µM]	Ki (IU-nucleoside hydrolase) [µM]	Ki (IAG-nucleoside hydrolase) [µM]	Km /KI IAG-nucleoside hydrolase (IAG-nucleoside hydrolase)	further results
Nc1ncnc2c1ncn2C1CC(O)C(CO)O1 (stereo not drawn) [d-Adenosine]	< 0.0006	–	–	–	–	Ki (nucleoside hydrolase; [1]): 3200 µM
Cc1cn([C@H]2C[C@H](O)[C@@H](CO)O2)c(=O)[nH]c1=O [Thymidine]	< 0.0008	7800	–	–	–	substrate activity (nucleoside hydrolase): no activity being detected; apparent Vmax difference, 5-methyluridine vs thymidine (nucleoside hydrolase; effect of the 2'-hydroxyl): > 10^5
OC[C@H]1N[C@@H](c2ccc(Br)cc2)[C@H](O)[C@@H]1O [XII]	–	–	0.028 ± 0.004	113 ± 5	0.16	inhibition pattern (IU-nucleoside hydrolase): slope-linear competitive inhibitors
C[C@H]1O[C@@H](n2cnc3c(=O)[nH]cnc32)[C@H](O)[C@@H]1O [5d-inosine]	–	–	–	–	–	substrate activity (nucleoside hydrolase): Low rates of product formation
Cytosine	–	–	–	–	–	Km (nucleoside hydrolase): 4700 µM; Vmax (nucleoside hydrolase): 36 ± 3 µmol/min/mg; Vmax /Km (nucleoside hydrolase): 4.5 × 10^3 M^-1 S^-1
OC[C@H]1N[C@@H](c2ccc(O)cc2)[C@H](O)[C@@H]1O [VII]	–	–	0.075 ± 0.004	35 ± 2	0.51	–
Nc1ncnc2c1ncn2[C@@H]1O[C@H](CO)C[C@H]1O [3'-d-Adenosine]	< 0.16	7290	–	–	–	–
Nc1cccc([C@@H]2N[C@H](CO)[C@@H](O)[C@H]2O)c1 [IX]	–	–	0.051 ± 0.004	38 ± 4	0.47	–
O=[N+]([O-])c1ccc([C@@H]2N[C@H](CO)[C@@H](O)[C@H]2O)cc1 [IV]	–	–	1.1 ± 0.1	> 360	< 0.05	inhibition at highest concentration tested (IAG-nucleoside hydrolase): NO inhibition was observed
O=[N+]([O-])c1ccc(O[C@@H]2O[C@H](CO)[C@@H](O)[C@H]2O)cc1 [nitrophenylribose, reference compound]	–	–	–	–	–	Km (IU-nucleoside hydrolase; compound as substrate): 64 ± 6 µM
O=C[C@H](O)[C@H](O)[C@H](O)CO [Ribose]	–	700 ± 100	–	–	–	inhibition pattern (nucleoside hydrolase): slope-linear, competitive patterns
O=c1[nH]cnc2c([C@@H]3O[C@H](CO)[C@@H](O)[C@H]3O)n[nH]c12 [Formycin B]	< 0.02	1960	–	–	–	–
O=[N+]([O-])c1cccc([C@@H]2N[C@H](CO)[C@@H](O)[C@H]2O)c1 [III]	–	–	7.5 ± 0.5	> 360	< 0.05	inhibition at highest concentration tested (IAG-nucleoside hydrolase): NO inhibition was observed
CSC[C@H]1O[C@@H](n2cnc3c(N)ncnc32)[C@H](O)[C@@H]1O [5'-Methylthioadenosine]	< 0.0003	5700	–	–	–	–
Nc1ccc([C@@H]2N[C@H](CO)[C@@H](O)[C@H]2O)cc1 [X]	–	–	0.03 ± 0.002	12 ± 1	1.5	binding compared to inosine (IAG-nucleoside hydrolase): binds as well as the preferred substrate, inosine; inhibition pattern (IAG-nucleoside hydrolase; full kinetic analysis): competitive inhibition
OC[C@H]1N[C@@H](c2ccc(Cl)cc2)[C@H](O)[C@@H]1O [XI]	–	–	0.03 ± 0.0014	190 ± 8	0.095	inhibition pattern (IU-nucleoside hydrolase): slope-linear competitive inhibitors
O=c1[nH]cnc2c1ncn2[C@H]1C[C@H](O)[C@@H](CO)O1 [d-Inosine]	< 0.0003	–	–	–	–	Ki (nucleoside hydrolase; [1]): 2300 µM
O=c1[nH]cnc2nc[nH]c12 [Hypoxanthine]	–	6200 ± 900	–	–	–	inhibition pattern (nucleoside hydrolase): slope-linear, competitive patterns
Nc1ncnc2c1ccn2[C@@H]1O[C@H](CO)[C@@H](O)[C@H]1O [7-Deazaadenosine, 7-deazaadenosine]	< 0.0008	2300	–	–	–	rate of hydrolysis relative to the rate with inosine (detection level) (nucleoside hydrolase): < 3×10^-4; substrate activity (nucleoside hydrolase; listed as tubercidin): not a substrate; also recorded: lack of substrate activity; inhibition pattern (nucleoside hydrolase): competitive inhibitor
Nc1ncnc2c1ncn2[C@@H]1O[C@H](COP(=O)(O)O)[C@@H](O)[C@H]1O [AMP]	< 0.01	44000	–	–	–	–
OC[C@H]1O[C@@H](n2cnc3cncnc32)[C@H](O)[C@@H]1O [Purine riboside]	–	–	–	–	–	substrate activity (nucleoside hydrolase): poor substrate; Vmax /Km (nucleoside hydrolase): 1.5×10^2 M^-1 S^-1
OC[C@H]1O[C@@H](n2cnc3c(O)ncnc32)[C@H](O)[C@@H]1O [Inosine]	–	–	–	–	–	Vmax /Km for inosine relative to adenosine (nucleoside hydrolase): 7.8 times; Km (nucleoside hydrolase): 380 ± 30 µM; Vmax (nucleoside hydrolase): 50 ± 2 µmol/min/mg; Vmax /Km (nucleoside hydrolase): 7.6×10^-4 M^-1 S^-1
C[C@H]1O[C@@H](n2cnc3c(N)ncnc32)[C@H](O)[C@@H]1O [5d-adenosine, 5'-Deoxyadenosine]	–	–	–	–	–	substrate activity (nucleoside hydrolase): Low rates of product formation
